Biological target: T1, hFXR (Homo sapiens, UniProt Q96RI1)
T1 construct: expressed in transfected cells; host or cells: CV-1 cells
T1 sequence (Q96RI1 1-486): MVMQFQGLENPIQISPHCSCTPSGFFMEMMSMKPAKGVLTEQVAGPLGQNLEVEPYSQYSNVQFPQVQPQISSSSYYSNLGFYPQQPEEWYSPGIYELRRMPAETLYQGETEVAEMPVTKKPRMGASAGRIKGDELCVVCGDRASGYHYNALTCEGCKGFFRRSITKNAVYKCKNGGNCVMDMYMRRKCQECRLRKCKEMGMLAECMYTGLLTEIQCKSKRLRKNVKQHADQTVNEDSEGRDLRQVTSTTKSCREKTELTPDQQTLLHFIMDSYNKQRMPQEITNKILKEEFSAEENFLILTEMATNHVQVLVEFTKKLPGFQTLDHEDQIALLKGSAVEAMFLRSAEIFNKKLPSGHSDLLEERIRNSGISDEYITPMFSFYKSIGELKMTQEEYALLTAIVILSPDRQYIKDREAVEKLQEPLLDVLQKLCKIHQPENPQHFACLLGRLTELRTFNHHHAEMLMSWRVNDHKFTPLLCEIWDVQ
T1 sequence (P19793 1-462 partner): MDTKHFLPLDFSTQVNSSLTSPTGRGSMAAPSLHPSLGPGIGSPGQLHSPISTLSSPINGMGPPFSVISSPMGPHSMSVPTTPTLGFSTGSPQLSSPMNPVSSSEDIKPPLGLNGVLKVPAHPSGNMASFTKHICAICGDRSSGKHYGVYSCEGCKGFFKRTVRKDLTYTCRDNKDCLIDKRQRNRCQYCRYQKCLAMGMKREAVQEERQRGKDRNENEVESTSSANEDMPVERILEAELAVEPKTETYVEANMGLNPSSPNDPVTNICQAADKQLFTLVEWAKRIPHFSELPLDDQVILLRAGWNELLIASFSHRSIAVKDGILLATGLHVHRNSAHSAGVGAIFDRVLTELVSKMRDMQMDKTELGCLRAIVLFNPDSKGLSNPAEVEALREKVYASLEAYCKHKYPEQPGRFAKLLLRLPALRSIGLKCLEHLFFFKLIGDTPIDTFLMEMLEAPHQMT
Assay: In Vitro FXR Assay (TK): TK-ECRE-luc reporter in transfected CV-1 cells
Assay type: cell-based
Settings: 18 hrs incubation, luminescence
In short: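 Luciferase read-out from lysed CV-1 cells carrying transfected hFXR, hRXR, TK-ECRE-luc and pCMX-YFP. Test compounds, DMSO serial dilutions, were incubated with the cells for 18 h before lysis. Cells grew in charcoal-stripped serum medium.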

SMILES	EC50 [nM]
COc1ccc(C23CCC(CN(c4cc(-c5nnc(C(C)C)o5)ccn4)C(=O)[C@H]4CC[C@H](OC(=O)N5CC(O)C5)CC4)(CC2)CC3)cc1C [Compound 26.12, 4-((4-(5-Isopropyl-1,3,4-oxadiazol-2-yl)pyridin-2-yl)((4-(4-methoxy-3-methylphenyl)bicyclo[2.2.2]octan-1-yl)methyl)carbamoyl)cyclohexyl trans-3-hydroxyazetidine-1-carboxylate]	50 to 1000
COc1ccc([C@H]2CC[C@H](CN(c3cccc(-c4cnn(C(C)C)c4)c3)C(=O)[C@H]3CC[C@H](CNS(=O)(=O)C(C)C)CC3)CC2)cc1C [Compound 12.04, (trans)-N-(3-(1-Isopropyl-1H-pyrazol-4-yl)phenyl)-N-(((trans)-4-(4-methoxy-3-methylphenyl)cyclohexyl)methyl)-4-((1-methylethylsulfonamido)methyl)cy-clohexanecarboxamide]	50 to 1000
CC(C)n1cc(-c2ccnc(N(CC34CCC(C5CCC(C)(C)CC5)(CC3)CC4)C(=O)[C@H]3CC[C@H](OC(=O)N4CC(O)C4)CC3)c2)cn1 [Compound 26.19, 4-(((4-(4,4-Dimethylcyclohexyl)bicyclo[2.2.2]octan-1-yl)methyl)(4-(1-isopropyl-1H-pyrazol-4-yl)pyridin-2-yl)carbamoyl)cyclohexyl trans-3-hydroxyazetidine-1-carboxylate]	50 to 1000
COc1ccc(C23CCC(CN(c4cncc(-c5cnn(C(C)C)c5)c4)C(=O)[C@H]4CC[C@H](OC(=O)N5CC(O)C5)CC4)(CC2)CC3)cc1C [Compound 25, 4-((5-(1-Isopropyl-1H-pyrazol-4-yl)pyridin-3-yl)((4-(4-methoxy-3-methylphenyl)bicyclo[2.2.2]octan-1-yl)methyl)carbamoyl)cyclohexyl trans-3-hydroxyazetidine-1-carboxylate]	≤ 50
COc1ccc(C23CCC(CN(c4cc(-n5cnc(C(C)C)n5)ccn4)C(=O)[C@H]4CC[C@H](OC(=O)N5CC(O)C5)CC4)(CC2)CC3)cc1C [Compound 4.18, 4-((4-(3-Isopropyl-1H-1,2,4-triazol-1-yl)pyridin-2-yl)((4-(4-methoxy-3-methylphenyl)bicyclo [2.2.2]octan-1-yl)methyl)carbamoyl)cyclohexyl 3-hydroxyazetidine-trans-1-carboxylate]	≤ 50
COc1ccc(C23CCC(CN(c4cc(-c5cnn(C6CC[S+]([O-])CC6)c5)ccn4)C(=O)[C@H]4CC[C@H](OC(=O)N5CC(O)C5)CC4)(CC2)CC3)cc1C (stereo partly drawn) [Compound 26.22, 4-(((4-(4-Methoxy-3-methylphenyl)bicyclo[2.2.2]octan-1-yl)methyl)(4-(1-(1-oxidotetrahydro-2H-thiopyran-4-yl)-1H-pyrazol-4-yl)pyridin-2-yl)carbamoyl)cyclohexyl trans-3-hydroxyazetidine-1-carboxylate]	1000 to 10000
CCOC1CN(C(=O)O[C@H]2CC[C@H](C(=O)N(CC34CCC(c5ccc(OC)c(C)c5)(CC3)CC4)c3cc(-c4cnn(C(C)C)c4)ccn3)CC2)C1 [Compound 4.48, 4-((4-(1-Isopropyl-1H-pyrazol-4-yl)pyridin-2-yl) ((4-(4-methoxy-3-methylphenyl)bicyclo [2.2.2]octan-1-yl)methyl)carbamoyl)(trans-cyclohexyl) 3-ethoxyazetidine-1-carboxylate]	≤ 50
COc1ccc(C23CCC(CN(c4cccc(-c5cnn(C6(C)CCC6)c5)n4)C(=O)[C@H]4CC[C@H](OC(=O)N5CC(O)C5)CC4)(CC2)CC3)cc1C [Compound 25.24, 4-(((4-(4-Methoxy-3-methylphenyl)bicyclo[2.2.2]octan-1-yl)methyl)(6-(1-(1-methylcyclobutyl)-1H-pyrazol-4-y)pyridin-2-yl)carbamoyl)cyclohexyl trans-3-hydroxyazetidine-1-carboxylate]	≤ 50
CCc1nc(-c2ccnc(N(CC34CCC(c5ccc(OC)c(C)c5)(CC3)CC4)C(=O)[C@H]3CC[C@H](OC(=O)N4CC(CO)C4)CC3)c2)co1 [Compound 4.30, 4-((4-(2-Ethyloxazol-4-yl)pyridin-2-yl)((4-(4-methoxy-3-methylphenyl)bicyclo[2.2.2]octan-1-yl)methyl)carbamoyl)(trans-cyclohexyl) 3-(hydroxymethyl)azetidine-1-carboxylate]	≤ 50

The remaining lines, values ahead:

EC50 [nM]	SMILES
≤ 50	COCC(=O)N[C@H]1CC[C@H](C(=O)N(CC23CCC(c4ccc(OC)c(C)c4)(CC2)CC3)c2cc(-c3cnc(C(C)C)s3)ccn2)CC1 [Compound 9.05, (trans)-N-(4-(2-Isopropylthiazol-5-yl)pyridin-2-yl)-N-((4-(4-methoxy-3-methylphenyl)bicyclo[2.2.2]octan-1-yl)methyl)-4-(2-methoxyacetamido)cyclohexanecar-boxamide]
≤ 50	COc1ccc([C@H]2CC[C@H](CN(c3cccc(-c4coc(C5CC5)n4)c3)C(=O)[C@H]3CC[C@H](CO)CC3)CC2)nc1C [Compound 20, trans-N-(3-(2-Cyclopropyloxazol-4-yl)phenyl)-4-(hydroxymethyl)-N-((trans-4-(5-methoxy-6-methylpyridin-2-yl)cyclohexyl)methyl)cyclohexanecar-boxamide]
≤ 50	COc1ncc([C@H]2CC[C@H](CN(c3cc(-c4coc(C5CC5)n4)ccn3)C(=O)[C@H]3CC[C@H](OC(=O)N4CCN(C)CC4)CC3)CC2)cc1C [Compound 1.03, trans-4-((4-(2-Cyclopropyloxazol-4-yl)pyridin-2-yl)(((trans)-4-(6-methoxy-5-methylpyridin-3-yl)cyclohexyl)methyl)carbamoyl)cyclohexyl 4-methylpiperazine-1-carboxylate]
≤ 50	COc1ccc(C23CCC(CN(c4cccc(-n5cnc(C6CC6)c5)c4)C(=O)[C@H]4CC[C@H](OC(=O)N5CC(O)C5)CC4)(CC2)CC3)cc1C [Compound 4.58, 4-((3-(4-Cyclopropyl-1H-imidazol-1-yl)phenyl) ((4-(4-methoxy-3-methylphenyl)bicyclo [2.2.2]octan-1-yl)methyl)carbamoyl)cyclohexyl trans-3-hydroxyazetidine-1-carboxylate]
≤ 50	COc1ccc([C@H]2CC[C@H](CN(c3cccc(-c4cnn(C(C)C)c4)c3)C(=O)[C@H]3CC[C@H](CNC(=O)OCCO)CC3)CC2)cc1C [Compound 12.06, 2-Hydroxyethyl (((trans)-4-((3-(1-isopropyl-1H-pyrazol-4-yl)phenyl)(((trans)-4-(4-methoxy-3-methylphenyl)cyclohexyl)methyl)carbamoyl)cyclohexyl)methyl)car-bamate]
≤ 50	COc1ccc([C@H]2CC[C@H](CN(c3cc(-c4cnn(C(C)C)c4)ccn3)C(=O)[C@H]3CC[C@H](OC(=O)NC(CF)CF)CC3)CC2)cc1C [Compound 2.35, trans-4-((4-(1-Isopropyl-1H-pyrazol-4-yl)pyridin-2-yl)(((trans)-4-(4-methoxy-3-methylphenyl)cyclohexyl)methyl)carbamoyl) cyclohexyl(1,3-difluoropropan-2-yl) carbamate]
≤ 50	COCC(=O)N[C@H]1CC[C@H](C(=O)N(CC23CCC(c4ccc(OC)c(C)c4)(CC2)CC3)c2cc(-c3cnn(C(C)C)c3)ccn2)CC1 [Compound 9.01, trans-N-(4-(1-Isopropyl-1H-pyrazol-4-yl)pyridin-2-yl)-N-((4-(4-methoxy-3-methylphenyl)bicyclo[2.2.2]octan-1-yl)methyl)-4-(2-methoxyacetamido)cyclohexanecar-boxamide]
≤ 50	COc1ccc(C23CCC(CN(c4cc(-c5cnn(C(C)C)c5)ccn4)C(=O)[C@H]4CC[C@H](NC(=O)OC5COC5)CC4)(CC2)CC3)cc1C [Compound 7.02, (trans)-Oxetan-3-yl (4-((4-(1-isopropyl-1H-pyrazol-4-yl)pyridin-2-yl)((4-(4-methoxy-3-methylphenyl)bicyclo[2.2.2]octan-1-yl)methyl)carbamoyl)cyclohexyl) carbamate]
